Measured values as given in paper PMC5739799 (Oncotarget, 2017).
Where two headings read alike, the source gives them in different places.

How the values were obtained:
HCC-PDX model 5 = assay: Patient-derived HCC xenograft model 5, tumor growth; type: in vivo, BALB/c nude mice
Experimental: (§1) The PDX studies were carried out by WuXi AppTec (Shanghai, China). HCC-PDX models were originally established from surgically resected tumor tissue that was implanted in 6–8-week-old female BALB/c nude mice. Animal studies were performed according to the guidelines approved by the Institutional Animal Care and Use Committee of Wuxi AppTec, which follow the guidance of the Association for the Assessment and Accreditation of Laboratory Animal Care. Animals were routinely monitored for their health status and their body weights. Treatment was suspended and/or doses reduced at body weight losses >10%. Animals were euthanized when the tumor size exceeded 2000 mm^3. Pieces from tumor xenografts (∼30 mm^3) from passages 4–8 (ST1) were implanted subcutaneously at the right flank, and tumors were grown to an average size of about 150–200 mm^3. […] Tumor size was measured twice weekly using caliper measurements. Tumor volume (mm^3) was calculated using the formula 0.5 a × b^2, where a and b are the long and short diameters of the tumor, respectively. TGI was assessed either by calculating the ratio of the mean tumor volumes of treated and control groups or by determination of the RTV, which relates tumor volumes at any given day of treatment to the volume at the first treatment day.
(§2) In the syngenic orthotopic H129 model, differences in survival times between groups were analyzed for significance using log-rank tests. Analysis of tumor volumes of the HCC-PDX models was performed with log2-transformed values on defined days of measurement based on the assumption of their log-normal distribution. […] All respective statistical test results were derived from a common linear model that allows for individual variances in the different groups. The adjustment for multiple testing was carried out using Šidák correction at a significance level of 0.05. Back transformation of the mean difference of log2-transformed tumor volumes led to the ratios of the compared groups, whereby ratios of 1 reflect no difference in tumor volumes and ratios below or above 1 reflect smaller or larger tumor volumes, respectively, of the respective second group. The analyses of RTV were carried out in a similar fashion without the log2 transformation of values. Bead-based western data were analyzed (described in [15]) using the MEV 4.8.1 software package. A p-value <0.05 was regarded as significant. All statistical analyses were performed with SAS® 9.4 [34].

HCC-PDX model 10 = assay: Patient-derived HCC xenograft model 10, tumor growth; type: in vivo, BALB/c nude mice
Experimental: as §1, §2

HCC-PDX model 19 = assay: Patient-derived HCC xenograft model 19, tumor growth; type: in vivo, BALB/c nude mice
Experimental: as §1, §2

HCC-PDX model 20 = assay: Patient-derived HCC xenograft model 20, tumor growth; type: in vivo, BALB/c nude mice
Experimental: as §1, §2

HCC-PDX model 61 = assay: Patient-derived HCC xenograft model 61, tumor growth; type: in vivo, BALB/c nude mice
Experimental: as §1, §2

HCC-PDX model 101 = assay: Patient-derived HCC xenograft model 101, tumor growth; type: in vivo, BALB/c nude mice
Experimental: as §1, §2

HCC-PDX model 141 = assay: Patient-derived HCC xenograft model 141, tumor growth; type: in vivo, BALB/c nude mice
Experimental: as §1, §2

HCC-PDX model 159 = assay: Patient-derived HCC xenograft model 159, tumor growth; type: in vivo, BALB/c nude mice
Experimental: as §1, §2

HCC-PDX model 189 = assay: Patient-derived HCC xenograft model 189, tumor growth; type: in vivo, BALB/c nude mice
Experimental: as §1, §2

HCC-PDX model 217 = assay: Patient-derived HCC xenograft model 217, tumor growth; type: in vivo, BALB/c nude mice
Experimental: as §1, §2

[1] = test system: 10 patient-derived HCC xenograft (HCC-PDX) models; assay: Panel of 10 HCC-PDX models, overall response and tolerability; type: in vivo, BALB/c nude mice; settings: 10 HCC-PDX models; regorafenib 10, sorafenib 30 mg/kg/day oral
Experimental: as §1
In the syngenic orthotopic H129 model, differences in survival times between groups were analyzed for significance using log-rank tests. Analysis of tumor volumes of the HCC-PDX models was performed with log2-transformed values on defined days of measurement based on the assumption of their log-normal distribution. […] All respective statistical test results were derived from a common linear model that allows for individual variances in the different groups. The adjustment for multiple testing was carried out using Šidák correction at a significance level of 0.05. […] Bead-based western data were analyzed (described in [15]) using the MEV 4.8.1 software package. […]

[2] = Steady-state plasma pharmacokinetics after oral dosing for 5 days; type: in vivo, BALB/c nu/nu mice
Experimental: Pharmacokinetic studies were performed in 6–8-week-old female BALB/c nu/nu mice (Charles River, Sulzfeld, Germany). […] Parent compounds and metabolites M-2 and M-5 were analyzed in plasma samples using validated bioanalytical liquid chromatography-tandem mass spectrometry (LC-MS/MS) methods according to an experimental protocol described earlier. PK parameters, namely the AUC(0–24)ss and Cmax, were calculated from plasma concentrations using a non-compartmental analysis.

[3] = day 28, R 10 / S 30 mg/kg/day oral starting dose
[4] = plasma analyte after oral regorafenib 10 mg/kg/day for 5 days

CNC(=O)c1cc(Oc2ccc(NC(=O)Nc3ccc(Cl)c(C(F)(F)F)c3)c(F)c2)ccn1 [Regorafenib]
log TV Ratio, compound vs vehicle (T/C) (HCC-PDX model 5; day 28): 0.13
log TV Ratio, regorafenib vs sorafenib (HCC-PDX model 5; day 28): 0.73
Mean TV (HCC-PDX model 5; [3]): 80.96 mm^3
log TV Differences of least square-means, compound vs vehicle (HCC-PDX model 5; day 28, log2-transformed TV): -29,518
log TV Differences of least square-means, regorafenib vs sorafenib (HCC-PDX model 5; day 28, log2-transformed TV): -0.4634
RTV Differences of least square-means, compound vs vehicle (HCC-PDX model 5; day 46): -60,049
RTV Differences of least square-means, regorafenib vs sorafenib (HCC-PDX model 5; day 46): -0.6001
RTV (HCC-PDX model 5; end of study, day 46): 1.14
RTV Differences of least square-means, regorafenib vs sorafenib (HCC-PDX model 10; RTV analysis day R 40, S 30): -99,327
log TV Ratio, compound vs vehicle (T/C) (HCC-PDX model 10; day 12): 0.15
log TV Ratio, regorafenib vs sorafenib (HCC-PDX model 10; day 12): 0.53
Mean TV (HCC-PDX model 10; day 12, R 10 / S 30 mg/kg/day oral): 332.11 mm^3
log TV Differences of least square-means, compound vs vehicle (HCC-PDX model 10; day 12, log2-transformed TV): -27,077
log TV Differences of least square-means, regorafenib vs sorafenib (HCC-PDX model 10; day 12, log2-transformed TV): -0.9111
RTV (HCC-PDX model 10; end of study (RTV analysis day R 40, S 30)): 9.15
log TV Ratio, compound vs vehicle (T/C) (HCC-PDX model 19; day 28): 0.66
log TV Ratio, regorafenib vs sorafenib (HCC-PDX model 19; day 28): 1.06
Mean TV (HCC-PDX model 19; [3]): 542.38 mm^3
log TV Differences of least square-means, compound vs vehicle (HCC-PDX model 19; day 28, log2-transformed TV): -0.6083
log TV Differences of least square-means, regorafenib vs sorafenib (HCC-PDX model 19; day 28, log2-transformed TV): 0.08047
RTV Differences of least square-means, compound vs vehicle (HCC-PDX model 19; day 42): -24.1
RTV Differences of least square-means, regorafenib vs sorafenib (HCC-PDX model 19; day 42): 0.5174
RTV (HCC-PDX model 19; end of study, day 42): 5.21
log TV Ratio, compound vs vehicle (T/C) (HCC-PDX model 20; day 21): 0.73
log TV Ratio, regorafenib vs sorafenib (HCC-PDX model 20; day 21): 0.93
Mean TV (HCC-PDX model 20; day 21, R 10 / S 30 mg/kg/day oral): 742.98 mm^3
log TV Differences of least square-means, compound vs vehicle (HCC-PDX model 20; day 21, log2-transformed TV): -0.4621
log TV Differences of least square-means, regorafenib vs sorafenib (HCC-PDX model 20; day 21, log2-transformed TV): -0.1048
RTV Differences of least square-means, compound vs vehicle (HCC-PDX model 20; day 42): -23.2
RTV Differences of least square-means, regorafenib vs sorafenib (HCC-PDX model 20; day 42): -11
RTV (HCC-PDX model 20; end of study, day 42): 9.46
RTV Differences of least square-means, regorafenib vs sorafenib (HCC-PDX model 61; RTV analysis day R 42, S 36): -19.5
log TV Ratio, compound vs vehicle (T/C) (HCC-PDX model 61; day 25): 0.26
log TV Ratio, regorafenib vs sorafenib (HCC-PDX model 61; day 25): 0.72
Mean TV (HCC-PDX model 61; day 25, R 10 / S 30 mg/kg/day oral): 331.96 mm^3
log TV Differences of least square-means, regorafenib vs sorafenib (HCC-PDX model 61; day 25, log2-transformed TV): -0.4771
RTV (HCC-PDX model 61; end of study (RTV analysis day R 42, S 36)): 5.43
log TV Ratio, compound vs vehicle (T/C) (HCC-PDX model 101; day 28): 0.19
log TV Ratio, regorafenib vs sorafenib (HCC-PDX model 101; day 28): 0.41
Mean TV (HCC-PDX model 101; [3]): 177.21 mm^3
RTV (HCC-PDX model 101; end of study, day 42): 2.06
log TV Ratio, compound vs vehicle (T/C) (HCC-PDX model 141; day 28): 0.10
log TV Ratio, regorafenib vs sorafenib (HCC-PDX model 141; day 28): 0.76
Mean TV (HCC-PDX model 141; [3]): 89.74 mm^3
log TV Differences of least square-means, regorafenib vs sorafenib (HCC-PDX model 141; day 28, log2-transformed TV): -0.3980
RTV (HCC-PDX model 141; end of study, day 42): 1.04
log TV Ratio, compound vs vehicle (T/C) (HCC-PDX model 159; day 28): 0.59
log TV Ratio, regorafenib vs sorafenib (HCC-PDX model 159; day 28): 0.78
Mean TV (HCC-PDX model 159; [3]): 864.43 mm^3
log TV Differences of least square-means, compound vs vehicle (HCC-PDX model 159; day 28, log2-transformed TV): -0.7546
log TV Differences of least square-means, regorafenib vs sorafenib (HCC-PDX model 159; day 28, log2-transformed TV): -0.3604
RTV Differences of least square-means, regorafenib vs sorafenib (HCC-PDX model 159; day 35): -0.6894
RTV (HCC-PDX model 159; end of study, day 35): 9.04
RTV Differences of least square-means, compound vs vehicle (HCC-PDX model 189; day 21): -31,656
RTV Differences of least square-means, regorafenib vs sorafenib (HCC-PDX model 189; day 21): -0.2628
log TV Ratio, compound vs vehicle (T/C) (HCC-PDX model 189; day 21): 0.42
log TV Ratio, regorafenib vs sorafenib (HCC-PDX model 189; day 21): 0.88
Mean TV (HCC-PDX model 189; day 21, R 10 / S 30 mg/kg/day oral starting dose): 322.88 mm^3
log TV Differences of least square-means, compound vs vehicle (HCC-PDX model 189; day 21, log2-transformed TV): -12,395
log TV Differences of least square-means, regorafenib vs sorafenib (HCC-PDX model 189; day 21, log2-transformed TV): -0.1791
RTV (HCC-PDX model 189; end of study, day 21): 2.39
RTV Differences of least square-means, regorafenib vs sorafenib (HCC-PDX model 217; RTV analysis day R 24, S 20): -14,902
log TV Ratio, compound vs vehicle (T/C) (HCC-PDX model 217; day 13): 0.45
log TV Ratio, regorafenib vs sorafenib (HCC-PDX model 217; day 13): 0.92
Mean TV (HCC-PDX model 217; day 13, R 10 / S 30 mg/kg/day oral): 932.43 mm^3
log TV Differences of least square-means, compound vs vehicle (HCC-PDX model 217; day 13, log2-transformed TV): -11,395
log TV Differences of least square-means, regorafenib vs sorafenib (HCC-PDX model 217; day 13, log2-transformed TV): -0.1276
RTV (HCC-PDX model 217; end of study (RTV analysis day R 24, S 20)): 12.77
Models with significant tumor growth inhibition [1]: 8/10
AUC(0–24)ss (percent of total) ([2]; after oral regorafenib 10 mg/kg/day for 5 days, total = molar sum of regorafenib, M-2, M-5): 90% of total
AUC(0-t) ([2]; female, BALB/c nu/nu, mouse, plasma analyte after oral regorafenib 10 mg/kg/day for 5 days, read-out: AUC(0–24)ss): 93100 ng·h/mL
Cmax ([2]; female, BALB/c nu/nu, mouse, plasma analyte after oral regorafenib 10 mg/kg/day for 5 days, read-out: Cmax): 10700 ng/mL
AUC(0–24)ss [2, 4]: 193 µM·h
Cmax [2, 4]: 22.2 µM
Cumulated maximum concentration (Cmax) ([2]; regorafenib 10 mg/kg once daily for 5 days, parent plus metabolites): 24.5 µM
